Among the data in patent US12077503B2, “Substituted cyclic amides and their use as herbicides” (FMC CORPORATION, priority 2015, dated 2024) are Corn plant response rating (crop injury, 0 = no effect, 100 = complete kill), pest or weed control and plant injury values, retold here.

Structures are written as SMILES.

What all share (format): in vivo
Assay [1] concerns corn (Zea mays). Put plainly: Test A preemergence. The conditions noted are these: Zea mays, pre-emergence, 240 h, 0 to 100 scale (0 no effect, 100 complete control); for Corn plant response rating (crop injury, 0 = no effect, 100 = complete kill) at 500 g/ha: 500 g ai/ha, preemergence; for Corn plant response rating (crop injury, 0 = no effect, 100 = complete kill) at 125 g/ha: Preemergence, 125 g ai/ha. Put shortly:
(§1)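 Preemergence soil spray on seeded pots or post-emergence spray on 1–2 leaf plants, in loam–sand blend. Greenhouse ~10 d. Visual rating 0–100 against untreated plants.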

In assay [2] the test system is crabgrass, large (Digitaria sanguinalis). As to the kind of experiment: Test A preemergence. Conditions: Digitaria sanguinalis, pre-emergence, 240 h, 0 to 100 scale (0 no effect, 100 complete control), read-out: Plant response rating, Crabgrass, Large; for pest or weed control at 500 g/ha: 500 g ai/ha, preemergence; for pest or weed control at 125 g/ha: Preemergence, 125 g ai/ha. Put shortly:
as §1

The test system of assay [3] is morningglory (Ipomoea spp.). Put plainly: Test A preemergence. The conditions noted are these: Ipomoea, pre-emergence, 240 h, 0 to 100 scale (0 no effect, 100 complete control), read-out: Plant response rating, Morningglory; for pest or weed control at 500 g/ha: 500 g ai/ha, preemergence; for pest or weed control at 125 g/ha: Preemergence, 125 g ai/ha. Put shortly:
as §1

Assay [4] relates to velvetleaf (Abutilon theophrasti). Put plainly: Test A preemergence. Conditions: Abutilon theophrasti, pre-emergence, 240 h, 0 to 100 scale (0 no effect, 100 complete control), read-out: Plant response rating, Velvetleaf; for pest or weed control at 500 g/ha: 500 g ai/ha, preemergence; for pest or weed control at 125 g/ha: Preemergence, 125 g ai/ha. Put shortly:
as §1

Assay [5] concerns wheat (Triticum aestivum). Put plainly: Test A preemergence. The conditions noted are these: Triticum aestivum, pre-emergence, 240 h, 0 to 100 scale (0 no effect, 100 complete control), read-out: Plant response rating, Wheat; for plant injury at 500 g/ha: 500 g ai/ha, preemergence; for plant injury at 125 g/ha: Preemergence, 125 g ai/ha. Put shortly: as §1
Assay [6] relates to crabgrass, large (Digitaria sanguinalis). As to the kind of experiment: Test A postemergence. The conditions noted are these: Digitaria sanguinalis, post-emergence, 240 h, Postemergence; for pest or weed control at 125 g/ha: 125 g ai/ha, visual rating about 10 d after treatment, read-out: Crabgrass, Large plant response rating (0 to 100 scale); for pest or weed control at 500 g/ha: 500 g ai/ha, visual injury, 0 to 100 scale (0 no effect, 100 complete control), approx. 10 d, read-out: Plant response rating, Crabgrass, Large. Put shortly: as §1

Assay [7] concerns morningglory (Ipomoea spp.). As to the kind of experiment: Test A postemergence. The conditions noted are these: Ipomoea, post-emergence, 240 h, Postemergence; for pest or weed control at 125 g/ha: 125 g ai/ha, visual rating about 10 d after treatment, read-out: Morningglory plant response rating (0 to 100 scale); for pest or weed control at 500 g/ha: 500 g ai/ha, visual injury, 0 to 100 scale (0 no effect, 100 complete control), approx. 10 d, read-out: Plant response rating, Morningglory. Put shortly:
as §1

Assay [8] concerns velvetleaf (Abutilon theophrasti). As to the kind of experiment: Test A postemergence. Conditions: Abutilon theophrasti, post-emergence, 240 h, Postemergence; for pest or weed control at 125 g/ha: 125 g ai/ha, visual rating about 10 d after treatment, read-out: Velvetleaf plant response rating (0 to 100 scale); for pest or weed control at 500 g/ha: 500 g ai/ha, visual injury, 0 to 100 scale (0 no effect, 100 complete control), approx. 10 d, read-out: Plant response rating, Velvetleaf. Put shortly: as §1

In assay [1], `O=C1NCC(c2ccccc2)C1C(=O)Nc1cc(F)ccc1F` (centres unmarked) [Compound 1359] showed a Corn plant response rating (crop injury, 0 = no effect, 100 = complete kill) at 500 g/ha of 0%. Also, the Corn plant response rating (crop injury, 0 = no effect, 100 = complete kill) at 125 g/ha in assay [1] came to 0%. Besides, the pest or weed control at 500 g/ha in assay [2] is 20%; in assay [3], 0%; in assay [4], 0%; in assay [6], 0%; in assay [7], 0%; in assay [8], 0%. The pest or weed control at 125 g/ha in assay [2], in assay [3], in assay [4], in assay [6], in assay [7] and in assay [8] was 0% each time. Further, in assay [5], the plant injury at 500 g/ha was found to be 0%. Moreover, in assay [5], the plant injury at 125 g/ha worked out at 0%.

For `O=C1NCC(c2ccccc2)C1C(=O)Nc1ccc(C(F)(F)F)cc1` (centres unmarked) [Compound 1362], the Corn plant response rating (crop injury, 0 = no effect, 100 = complete kill) at 500 g/ha in assay [1] stood at 0%. This compound also gave a Corn plant response rating (crop injury, 0 = no effect, 100 = complete kill) at 125 g/ha in assay [1] of 0%. Further, the pest or weed control at 500 g/ha in assay [2], in assay [3], in assay [4], in assay [6], in assay [7] and in assay [8] was 0% throughout. Also, the pest or weed control at 125 g/ha in assay [2], in assay [3], in assay [4], in assay [6], in assay [7] and in assay [8] was 0% throughout. Moreover, the plant injury at 500 g/ha in assay [5] stood at 0%. Besides, the plant injury at 125 g/ha in assay [5] came to 0%.
